Assay results as given in PubChem BioAssay AID248 (DTP/NCI, 2004).
“And” between values parts separate entries of the source, which are not always exact repeats. Equal values may be shown once. Toxic doses and inconclusive results are not listed.

Test system: L1210 leukemia ip in BDF1 mice, survival T/C
Assay: NCI In Vivo Anticancer Drug Screen. Data for tumor model L1210 Leukemia (intraperitoneal) in B6D2F1 (BDF1) mice
Conditions: endpoint: mean survival time, higher = longer survival
Outline: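 Tumor cells were implanted, animals were treated, and survival was followed. The result divides the treated measurement by the vehicle-control measurement.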

[1] = dose: 100.0 mg/kg/injection, schedule: Q04DX003 (ip), vehicle: Klucel (hydroxypropylcellulose) (HPC)
[2] = dose: 200.0 mg/kg/injection, schedule: Q04DX003 (ip), vehicle: Klucel (hydroxypropylcellulose) (HPC)
[3] = dose: 400.0 mg/kg/injection, schedule: Q04DX003 (ip), vehicle: Klucel (hydroxypropylcellulose) (HPC)
[4] = dose: 50.0 mg/kg/injection, schedule: Q01DX009 (ip), vehicle: Klucel (hydroxypropylcellulose) (HPC)
[5] = dose: 100.0 mg/kg/injection, schedule: Q01DX009 (ip), vehicle: Klucel (hydroxypropylcellulose) (HPC)
[6] = dose: 50.0 mg/kg/injection, schedule: Q04DX003 (ip), vehicle: saline with Tween-80
[7] = dose: 100.0 mg/kg/injection, schedule: Q04DX003 (ip), vehicle: saline with Tween-80
[8] = dose: 200.0 mg/kg/injection, schedule: Q04DX003 (ip), vehicle: saline with Tween-80
[9] = dose: 400.0 mg/kg/injection, schedule: Q04DX003 (ip), vehicle: saline with Tween-80
[10] = dose: 200.0 mg/kg/injection, schedule: Q01DX009 (ip), vehicle: Klucel (hydroxypropylcellulose) (HPC)
[11] = dose: 400.0 mg/kg/injection, schedule: Q01DX009 (ip), vehicle: Klucel (hydroxypropylcellulose) (HPC)
[12] = dose: 100.0 mg/kg/injection, schedule: Q01DX009 (ip), vehicle: saline with Tween-80
[13] = dose: 200.0 mg/kg/injection, schedule: Q01DX009 (ip), vehicle: saline with Tween-80
[14] = dose: 400.0 mg/kg/injection, schedule: Q01DX009 (ip), vehicle: saline with Tween-80

NC(=O)c1[nH]cnc1NN=NCCCl
T/C (dose: 0.37 mg/kg/injection, schedule: Q01DX009 (ip), vehicle: saline with Tween-80): 165 % of control | T/C (dose: 0.75 mg/kg/injection, schedule: Q01DX001 (ip), vehicle: saline with Tween-80): 106 % of control | T/C (dose: 0.75 mg/kg/injection, schedule: Q01DX009 (ip), vehicle: saline with Tween-80): 119 % of control | T/C (dose: 1.5 mg/kg/injection, schedule: Q01DX009 (ip), vehicle: saline with Tween-80): 122 % of control | T/C (dose: 3.0 mg/kg/injection, schedule: Q01DX009 (ip), vehicle: saline with Tween-80): 173 % of control | T/C (dose: 3.12 mg/kg/injection, schedule: Q01DX009 (ip), vehicle: saline with Tween-80): 172 % of control | T/C (dose: 4.0 mg/kg/injection, schedule: Q01DX009 (ip), vehicle: saline with Tween-80): 156 % of control and 189 % of control | T/C (dose: 6.0 mg/kg/injection, schedule: Q01DX009 (ip), vehicle: saline with Tween-80): 164 % of control and 240 % of control | T/C (dose: 6.25 mg/kg/injection, schedule: Q01DX009 (ip), vehicle: saline with Tween-80): 258 % of control | T/C (dose: 9.0 mg/kg/injection, schedule: Q01DX009 (ip), vehicle: saline with Tween-80): 191 % of control and 215 % of control | T/C (dose: 12.5 mg/kg/injection, schedule: Q01DX001 (ip), vehicle: saline with Tween-80): 247 % of control | T/C (dose: 12.5 mg/kg/injection, schedule: Q01DX009 (ip), vehicle: saline with Tween-80): 161 % of control | T/C (dose: 17.0 mg/kg/injection, schedule: Q01DX001 (ip), vehicle: saline with Tween-80): 215 % of control and 229 % of control | T/C (dose: 25.0 mg/kg/injection, schedule: Q01DX001 (ip), vehicle: saline with Tween-80): 207 % of control and 285 % of control and 313 % of control | T/C (dose: 25.0 mg/kg/injection, schedule: Q01DX009 (ip), vehicle: saline with Tween-80): 91 % of control | T/C (dose: 37.0 mg/kg/injection, schedule: Q01DX001 (ip), vehicle: saline with Tween-80): 171 % of control and 257 % of control | T/C (dose: 50.0 mg/kg/injection, schedule: Q01DX001 (ip), vehicle: saline with Tween-80): 197 % of control

O=C(COc1ccc(Cl)c(Cl)c1)Nc1ccc[n+](Cc2ccc(Cl)c(Cl)c2)c1
T/C [1]: 90 % of control | T/C [2]: 97 % of control | T/C [3]: 104 % of control

NC(=O)CNC(=O)C(CSCc1ccccc1)NC(=O)OCc1ccccc1 (stereo not given)
T/C (dose: 25.0 mg/kg/injection, schedule: Q01DX009 (ip), vehicle: Klucel (hydroxypropylcellulose) (HPC)): 89 % of control | T/C [4]: 93 % of control | T/C [5]: 94 % of control | T/C [1]: 90 % of control

CCCCCCCc1nc(N)c(C(N)=O)[nH]1
T/C (dose: 25.0 mg/kg/injection, schedule: Q04DX003 (ip), vehicle: saline with Tween-80): 96 % of control | T/C [6]: 102 % of control | T/C (dose: 100.0 mg/kg/injection, schedule: Q01DX001 (ip), vehicle: saline with Tween-80): 98 % of control | T/C [7]: 101 % of control

O=C1CCC(CC2CCCCC2)CC1
T/C [7]: 100 % of control | T/C [8]: 95 % of control

Clc1ccc(Cl)nn1
T/C (dose: 100.0 mg/kg/injection, schedule: Q04DX002 (ip), vehicle: saline): 102 % of control | T/C (dose: 200.0 mg/kg/injection, schedule: Q04DX002 (ip), vehicle: saline): 87 % of control | T/C (dose: 400.0 mg/kg/injection, schedule: Q04DX002 (ip), vehicle: saline): 87 % of control

CCCCCCCCCCCCCCCC(=O)Nc1ccc(Cl)c(Cl)c1
T/C (dose: 50.0 mg/kg/injection, schedule: Q04DX003 (ip), vehicle: carboxymethylcellulose (CMC)): 87 % of control | T/C (dose: 100.0 mg/kg/injection, schedule: Q01DX001 (ip), vehicle: carboxymethylcellulose (CMC)): 89 % of control | T/C (dose: 100.0 mg/kg/injection, schedule: Q01DX009 (ip), vehicle: carboxymethylcellulose (CMC)): 102 % of control and 89 % of control | T/C (dose: 100.0 mg/kg/injection, schedule: Q04DX002 (ip), vehicle: other): 92 % of control and 101 % of control | T/C (dose: 100.0 mg/kg/injection, schedule: Q04DX003 (ip), vehicle: carboxymethylcellulose (CMC)): 95 % of control | T/C (dose: 200.0 mg/kg/injection, schedule: Q01DX001 (ip), vehicle: carboxymethylcellulose (CMC)): 90 % of control | T/C (dose: 200.0 mg/kg/injection, schedule: Q01DX009 (ip), vehicle: carboxymethylcellulose (CMC)): 96 % of control and 86 % of control | T/C (dose: 200.0 mg/kg/injection, schedule: Q04DX002 (ip), vehicle: other): 93 % of control and 89 % of control | T/C (dose: 200.0 mg/kg/injection, schedule: Q04DX003 (ip), vehicle: carboxymethylcellulose (CMC)): 87 % of control | T/C (dose: 400.0 mg/kg/injection, schedule: Q01DX009 (ip), vehicle: carboxymethylcellulose (CMC)): 93 % of control and 86 % of control | T/C (dose: 400.0 mg/kg/injection, schedule: Q04DX002 (ip), vehicle: other): 93 % of control and 94 % of control

CCN1CCN(CC)C1=S
T/C (dose: 50.0 mg/kg/injection, schedule: Q04DX002 (ip), vehicle: Klucel (hydroxypropylcellulose) (HPC)): 114 % of control | T/C (dose: 100.0 mg/kg/injection, schedule: Q04DX002 (ip), vehicle: Klucel (hydroxypropylcellulose) (HPC)): 90 % of control | T/C (dose: 200.0 mg/kg/injection, schedule: Q04DX002 (ip), vehicle: Klucel (hydroxypropylcellulose) (HPC)): 109 % of control

Cc1c2c(nn1Cc1ccccc1)C(=O)C=C(Nc1ccccc1)C2=O
T/C (dose: 50.0 mg/kg/injection, schedule: Q01DX001 (ip), vehicle: Klucel (hydroxypropylcellulose) (HPC)): 99 % of control | T/C (dose: 100.0 mg/kg/injection, schedule: Q01DX001 (ip), vehicle: Klucel (hydroxypropylcellulose) (HPC)): 99 % of control and 104 % of control | T/C (dose: 200.0 mg/kg/injection, schedule: Q01DX001 (ip), vehicle: Klucel (hydroxypropylcellulose) (HPC)): 97 % of control and 111 % of control

Brc1ccc([Si](c2ccccc2)(c2ccccc2)c2ccccc2)cc1
T/C [7]: 97 % of control | T/C [8]: 92 % of control | T/C [9]: 89 % of control

O=C1CCC2c3ccccc3C(=O)C2C1 (stereo not given)
T/C [4]: 100 % of control | T/C [5]: 100 % of control | T/C [10]: 98 % of control

CC(=O)c1cccc(NC(=O)OC2CCCC(C)C2)c1 (stereo not given)
T/C [5]: 93 % of control | T/C [10]: 101 % of control | T/C [11]: 97 % of control

O=S(=O)(c1ccccc1)C(Br)Br
T/C [6]: 101 % of control | T/C [7]: 103 % of control | T/C [8]: 101 % of control

O=C(O)CC(Sc1ccccc1)C(=O)O (stereo not given)
T/C (dose: 100.0 mg/kg/injection, schedule: Q04DX002 (ip), vehicle: saline + alcohol): 99 % of control | T/C (dose: 200.0 mg/kg/injection, schedule: Q04DX002 (ip), vehicle: saline + alcohol): 102 % of control | T/C (dose: 400.0 mg/kg/injection, schedule: Q04DX002 (ip), vehicle: saline + alcohol): 99 % of control

O=Cc1cc(O)c(O)c(O)c1
T/C (dose: 50.0 mg/kg/injection, schedule: Q01DX001 (ip), vehicle: other): 103 % of control | T/C (dose: 100.0 mg/kg/injection, schedule: Q01DX001 (ip), vehicle: other): 101 % of control | T/C (dose: 200.0 mg/kg/injection, schedule: Q01DX001 (ip), vehicle: other): 101 % of control | T/C (dose: 400.0 mg/kg/injection, schedule: Q01DX001 (ip), vehicle: other): 104 % of control

O=C(O)C1CCCCC1C(=O)N(Cc1ccccc1)Cc1ccccc1 (stereo not given)
T/C [5]: 98 % of control | T/C [10]: 102 % of control | T/C [11]: 90 % of control

CC1(C)C(=O)C(C)(C)C1=Nc1ccccc1
T/C [12]: 95 % of control | T/C [7]: 108 % of control | T/C [13]: 94 % of control | T/C [8]: 106 % of control | T/C [14]: 97 % of control | T/C [9]: 106 % of control

COc1nc(NNC(N)=S)ccc1[N+](=O)[O-]
T/C [1]: 91 % of control | T/C [2]: 93 % of control | T/C [3]: 93 % of control

CCO/N=C(/C)C(C)SC#N (stereo not given)
T/C (dose: 10.0 mg/kg/injection, schedule: Q01DX001 (ip), vehicle: saline): 97 % of control | T/C (dose: 20.0 mg/kg/injection, schedule: Q01DX001 (ip), vehicle: saline): 105 % of control

N=C(Oc1c(Cl)c(Cl)c(Cl)c(Cl)c1Cl)Oc1c(Cl)c(Cl)c(Cl)c(Cl)c1Cl
T/C [5]: 100 % of control | T/C [10]: 111 % of control | T/C [11]: 102 % of control

CCSP(=S)(SCC)SCC
T/C (dose: 75.0 mg/kg/injection, schedule: Q04DX003 (ip), vehicle: Klucel (hydroxypropylcellulose) (HPC)): 94 % of control | T/C (dose: 150.0 mg/kg/injection, schedule: Q04DX003 (ip), vehicle: Klucel (hydroxypropylcellulose) (HPC)): 92 % of control | T/C (dose: 300.0 mg/kg/injection, schedule: Q04DX003 (ip), vehicle: Klucel (hydroxypropylcellulose) (HPC)): 120 % of control

COc1ccc(OCC(=O)O)c(C=O)c1
T/C [12]: 95 % of control | T/C [7]: 115 % of control | T/C [13]: 93 % of control | T/C [8]: 96 % of control | T/C [14]: 91 % of control | T/C [9]: 106 % of control
